Test results published in patent US4742053A, “3-Isoquinoliniomethyl cephalosporin derivatives” (Banyu Pharmaceutical Co., Ltd., priority 1984, dated 1988).
Converted amounts (≈) assume the structure as drawn. Read-outs that look alike come from different tables or passages of the source.

What was measured:
[1] = test system: Gram-positive bacteria and Gram-negative bacteria; settings: background, Antimicrobial Agents and Chemotherapy; cited from earlier work
[2] = test system: E. coli CSH2; experiment: MIC by agar plate dilution method; type: cell-based; settings: Escherichia coli, 10^6 CFU/ml, read-out: Minimum Inhibitory Concentration
Outline: (§1)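 Compounds are diluted into Sensitivity Disk Agar plates, which are then inoculated at 10^6 CFU/ml. The lowest concentration inhibiting growth is taken as the MIC (μg/ml).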

[3] = test system: E. cloaceae Nek 39; experiment: MIC by agar plate dilution method; type: cell-based; settings: read-out: Minimum Inhibitory Concentration
Outline: as §1

[4] = test system: S. aureus JS-1; experiment: MIC by agar plate dilution method; type: cell-based; settings: Staphylococcus aureus
Outline: as §1

[5] = test system: P. vulgaris OB1043; experiment: MIC by agar plate dilution method; type: cell-based; settings: Proteus vulgaris
Outline: as §1

[6] = test system: E. coli W3630/Rms213; experiment: MIC by agar plate dilution method; type: cell-based; settings: Escherichia coli, W3630/RMS213, read-out: Minimum Inhibitory Concentration, E. coli W3630/Rms213; 10^6 CFU/ml
Outline: as §1

[7] = test system: E. coli W3630/Rms212; experiment: MIC by agar plate dilution method; type: cell-based; settings: Escherichia coli, W3630/RMS212, read-out: Minimum Inhibitory Concentration, E. coli W3630/Rms212; 10^6 CFU/ml
Outline: as §1

[8] = test system: E. coli NIHJJC-2; experiment: MIC by agar plate dilution method; type: cell-based; settings: Escherichia coli
Outline: as §1

[9] = test system: E. coli ML1410/Rte16; experiment: MIC by agar plate dilution method; type: cell-based; settings: Escherichia coli, ML1410/RTE16, read-out: Minimum Inhibitory Concentration, E. coli ML1410/Rte16; 10^6 CFU/ml
Outline: as §1

[10] = test system: P. cepacia 23; experiment: MIC by agar plate dilution method; type: cell-based
Outline: as §1

[11] = test system: S. marcescens No. 16-2; experiment: MIC by agar plate dilution method; type: cell-based; settings: Serratia marcescens
Outline: as §1

[12] = test system: P. aeruginosa AKR17; experiment: MIC by agar plate dilution method; type: cell-based; settings: Pseudomonas aeruginosa
Outline: as §1

[13] = test system: P. aeruginosa AK109; experiment: MIC by agar plate dilution method; type: cell-based; settings: Pseudomonas aeruginosa
Outline: as §1

[14] = test system: P. maltophilia IID 1275; experiment: MIC by agar plate dilution method; type: cell-based; settings: Stenotrophomonas maltophilia
Outline: as §1

[15] = test system: E. coli C/Rms149; experiment: MIC by agar plate dilution method; type: cell-based; settings: Escherichia coli, read-out: Minimum Inhibitory Concentration, E. coli C/Rms149; 10^6 CFU/ml
Outline: as §1

[16] = test system: E. coli CSH; experiment: MIC by agar plate dilution method; type: cell-based; settings: Escherichia coli, 10^6 CFU/ml, read-out: Minimum Inhibitory Concentration
Outline: as §1

[17] = test system: K. pneumoniae No. 42; experiment: MIC by agar plate dilution method; type: cell-based; settings: Klebsiella pneumoniae
Outline: as §1

[18] = test system: P. vulgaris No. 33; experiment: MIC by agar plate dilution method; type: cell-based; settings: Proteus vulgaris
Outline: as §1

[19] = test system: C. freundii No. 7; experiment: MIC by agar plate dilution method; type: cell-based; settings: Citrobacter freundii
Outline: as §1

[20] = test system: P. mirabilis JY10; experiment: MIC by agar plate dilution method; type: cell-based; settings: Proteus mirabilis
Outline: as §1

[21] = test system: A. calcoaceticus No. 14; experiment: MIC by agar plate dilution method; type: cell-based; settings: Acinetobacter calcoaceticus
Outline: as §1

[22] = test system: S. aureus NIHJJC-1; experiment: MIC by agar plate dilution method; type: cell-based; settings: Staphylococcus aureus
Outline: as §1

[23] = test system: E. coli NIHJ; experiment: bioautography (TLC); type: cell-based; settings: TLC Merck silica gel F254, E. coli NIHJ
Description: 2.5 mg of the compound obtained in Example 4 (C) was suspended in 0.5 ml of methanol, and 35 μl of concentrated aqueous ammonia was added thereto. The mixture was left to stand at room temperature for 1 hour. […] The fraction of this peak was separated and freeze-dried to obtain 1 mg of the above identified compound.

[24] = E. cloaceae Nek 39, 10^6 CFU/ml
[25] = JS1, S. aureus JS-1, 10^6 CFU/ml, read-out: Minimum Inhibitory Concentration
[26] = OB1043, P. vulgaris OB1043, 10^6 CFU/ml, read-out: Minimum Inhibitory Concentration
[27] = NIHJJC2, E. coli NIHJJC-2, 10^6 CFU/ml, read-out: Minimum Inhibitory Concentration
[28] = Burkholderia cepacia, P. cepacia 23, 10^6 CFU/ml, read-out: Minimum Inhibitory Concentration
[29] = NO.162, S. marcescens No. 16-2, 10^6 CFU/ml, read-out: Minimum Inhibitory Concentration
[30] = AKR17, P. aeruginosa AKR17, 10^6 CFU/ml, read-out: Minimum Inhibitory Concentration
[31] = AK109, P. aeruginosa AK109, 10^6 CFU/ml, read-out: Minimum Inhibitory Concentration
[32] = IID1275, P. maltophilia IID 1275, 10^6 CFU/ml, read-out: Minimum Inhibitory Concentration
[33] = K. pneumoniae No. 42, 10^6 CFU/ml, read-out: Minimum Inhibitory Concentration
[34] = P. vulgaris No. 33, 10^6 CFU/ml, read-out: Minimum Inhibitory Concentration
[35] = C. freundii No. 7, 10^6 CFU/ml, read-out: Minimum Inhibitory Concentration
[36] = P. mirabilis JY10, 10^6 CFU/ml, read-out: Minimum Inhibitory Concentration
[37] = NO.14, A. calcoaceticus No. 14, 10^6 CFU/ml, read-out: Minimum Inhibitory Concentration
[38] = NIHJJC1, S. aureus NIHJJC-1, 10^6 CFU/ml, read-out: Minimum Inhibitory Concentration
[39] = NO.33, read-out: Minimum Inhibitory Concentration

SMILES	MIC [2] [µg/mL]	MIC [3, 24] [µg/mL]	MIC [4, 25] [µg/mL]	MIC [5, 26] [µg/mL]	MIC [6] [µg/mL]	MIC [7] [µg/mL]	MIC [8, 27] [µg/mL]	MIC [9] [µg/mL]	MIC [10, 28] [µg/mL]	MIC [11, 29] [µg/mL]	MIC [12, 30] [µg/mL]	MIC [13, 31] [µg/mL]	MIC [14, 32] [µg/mL]	MIC [15] [µg/mL]	MIC [16] [µg/mL]	MIC [17, 33] [µg/mL]	MIC [19, 35] [µg/mL]	MIC [20, 36] [µg/mL]	MIC [21, 37] [µg/mL]	MIC [22, 38] [µg/mL]	further results
CO/N=C(\C(=O)N[C@@H]1C(=O)N2C(C(=O)O)=C(COC(C)=O)CS[C@H]12)c1csc(N)n1 [Cefotaxime, reference compound]	≤ 0.05	0.78 (≈ 1.71 µM)	6.25 (≈ 13.7 µM)	0.39 (≈ 0.856 µM)	0.2 (≈ 0.439 µM)	≤ 0.05	≤ 0.05	≤ 0.05	6.25 (≈ 13.7 µM)	6.25 (≈ 13.7 µM)	> 25	6.25 (≈ 13.7 µM)	> 25	≤ 0.05	0.1 (≈ 0.22 µM)	0.1 (≈ 0.22 µM)	0.39 (≈ 0.856 µM)	≤ 0.05	25 (≈ 54.9 µM)	0.78 (≈ 1.71 µM)	antibacterial activities [1]: relatively poor antibacterial activities against Gram-positive bacteria, and excellent activities against Gram-negative bacteria, particularly against Enterobacteriacae; MIC [18, 34]: ≤ 0.05 µg/mL
CC(C)(O/N=C(\C(=O)N[C@@H]1C(=O)N2C(C(=O)[O-])=C(C[n+]3ccccc3)CS[C@H]12)c1csc(N)n1)C(=O)O [Ceftazidime, reference compound]	≤ 0.1				0.2 (≈ 0.366 µM)	0.2 (≈ 0.366 µM)		0.2 (≈ 0.366 µM)						0.2 (≈ 0.366 µM)	≤ 0.1						antibacterial activities [1]: the most excellent cephalosporin derivative against Gram-positive bacteria including Pseudomonas aeruginosa and Acinetobacter; MIC [3]: 0.78 µg/mL (≈ 1.43 µM); MIC ([4]; JS1, read-out: Minimum Inhibitory Concentration): 50 µg/mL (≈ 91.5 µM); MIC ([5]; OB1043, read-out: Minimum Inhibitory Concentration): ≤ 0.1 µg/mL; MIC ([8]; NIHJJC2, read-out: Minimum Inhibitory Concentration): ≤ 0.1 µg/mL; MIC ([10]; Burkholderia cepacia, 23, read-out: Minimum Inhibitory Concentration): 0.39 µg/mL (≈ 0.714 µM); MIC ([11]; NO.162, read-out: Minimum Inhibitory Concentration): 1.56 µg/mL (≈ 2.85 µM); MIC ([12]; AKR17, read-out: Minimum Inhibitory Concentration): > 100 µg/mL; MIC ([13]; AK109, read-out: Minimum Inhibitory Concentration): 1.56 µg/mL (≈ 2.85 µM); MIC ([14]; IID1275, read-out: Minimum Inhibitory Concentration): > 25 µg/mL; MIC ([17]; NO.42, read-out: Minimum Inhibitory Concentration): 0.39 µg/mL (≈ 0.714 µM); MIC [18, 39]: ≤ 0.1 µg/mL; MIC ([19]; NO.7, read-out: Minimum Inhibitory Concentration): 1.56 µg/mL (≈ 2.85 µM); MIC ([20]; JY10, read-out: Minimum Inhibitory Concentration): ≤ 0.1 µg/mL; MIC ([21]; NO.14, read-out: Minimum Inhibitory Concentration): 6.25 µg/mL (≈ 11.4 µM); MIC ([22]; NIHJJC1, read-out: Minimum Inhibitory Concentration): 3.12 µg/mL (≈ 5.71 µM)
CO/N=C(\C(=O)NC1C(=O)N2C(C(=O)[O-])=C(C[N+]3(C)CCc4cc(OC(C)=O)c(OC(C)=O)cc4C3)CSC12)c1csc(N)n1 (centres unmarked) [Ex. 4-C, 7-[(Z)-2-(2-aminothiazol-4-yl)-2-methoxyiminoacetamido]-3-(6,7-diacetoxy-2-methyl-1,2,3,4-tetrahydro-2-isoquinolinium)methyl-3-cephem-4-carboxylate]	0.1 (≈ 0.152 µM)	≤ 0.05	25 (≈ 38 µM)	1.56 (≈ 2.37 µM)	1.56 (≈ 2.37 µM)	≤ 0.05	< 0.05	0.1 (≈ 0.152 µM)	0.78 (≈ 1.18 µM)	6.25 (≈ 9.49 µM)	1.56 (≈ 2.37 µM)	0.1 (≈ 0.152 µM)		≤ 0.1	1.56 (≈ 2.37 µM)	0.2 (≈ 0.304 µM)	6.25 (≈ 9.49 µM)	0.78 (≈ 1.18 µM)	0.39 (≈ 0.592 µM)	3.12 (≈ 4.74 µM)	antibacterial spot in bioautography [23]: the antibacterial spot of the starting material was at Rf=0.4; MIC [18, 34]: 0.2 µg/mL (≈ 0.304 µM)
C[N+]1(CC2=C(C(=O)[O-])N3C(=O)C(NC(=O)C(=NOC4(C(=O)O)CCCC4)c4csc(N)n4)C3SC2)CCc2cc(O)c(O)cc2C1 (centres unmarked) [Ex. 18-G, 7-[(Z)-2-(2-aminothiazol-4-yl)-2-(1-carboxy-1 cyclopentyloxyimino)acetamido]-3-(6,7-dihydroxy-2-methyl-1,2,3,4-tetrahydro-2-isoquinolinium)methyl-3-cephem-4-carboxylate]	0.78 (≈ 1.16 µM)	0.1 (≈ 0.149 µM)	> 100	1.56 (≈ 2.32 µM)	0.78 (≈ 1.16 µM)	0.39 (≈ 0.58 µM)	0.39 (≈ 0.58 µM)	0.2 (≈ 0.297 µM)	0.2 (≈ 0.297 µM)	12.5 (≈ 18.6 µM)	0.78 (≈ 1.16 µM)	0.2 (≈ 0.297 µM)	100 (≈ 149 µM)	0.78 (≈ 1.16 µM)	0.78 (≈ 1.16 µM)	1.56 (≈ 2.32 µM)	0.78 (≈ 1.16 µM)	6.25 (≈ 9.29 µM)	3.12 (≈ 4.64 µM)	25 (≈ 37.2 µM)	MIC [18, 34]: 6.25 µg/mL (≈ 9.29 µM)
C[N+]1(CC2=C(C(=O)[O-])N3C(=O)C(NC(=O)C(=NOC4(C(=O)O)CCC4)c4csc(N)n4)C3SC2)CCc2cc(O)c(O)cc2C1 (centres unmarked) [Ex. 19, 7-[(Z)-2-(2-aminothiazol-4-yl)-2-(1-carboxy-1-cyclobutoxyimiino)acetamide]-3-(6,7-dihydroxy-2-methyl-1,2,3,4-tetrahydro2-isoquinolinium)methyl-3-cephem-4-carboxylate]	0.05 (≈ 0.0759 µM)	0.1 (≈ 0.152 µM)	100 (≈ 152 µM)	0.05 (≈ 0.0759 µM)	0.025 (≈ 0.038 µM)	0.025 (≈ 0.038 µM)	0.05 (≈ 0.0759 µM)	0.025 (≈ 0.038 µM)	0.0125 (≈ 0.019 µM)	0.39 (≈ 0.592 µM)	0.1 (≈ 0.152 µM)	0.025 (≈ 0.038 µM)	3.12 (≈ 4.74 µM)	0.025 (≈ 0.038 µM)	0.05 (≈ 0.0759 µM)	0.05 (≈ 0.0759 µM)	0.78 (≈ 1.18 µM)	0.1 (≈ 0.152 µM)	0.2 (≈ 0.304 µM)	25 (≈ 38 µM)	MIC [18, 39]: 0.05 µg/mL (≈ 0.0759 µM)
